One test has as its target T1, hVEGFR1-ECD (Homo sapiens, UniProt P17948).
T1 construct: purchased R&D Systems, Abingdon, UK
Format: binding. Conditions: for % displacement at 30 μM: 1% DMSO; for IC50: read-out: IC50 [95% CI]; for effect on the competition assay (in words): divalent cations, VEGF-A/hVEGFR1 interaction.

The next test has as its target T2, hVEGFR1d2 (Homo sapiens, UniProt P17948).
T2 construct: The human hVEGFR1d2 protein (residues 132–226) was expressed and purified; made in house; host or cells: E. coli Rosetta-gami(DE3)pLysS is stated only for the 15N-labelled batch
In words: analytical size exclusion chromatography of hVEGFR1d2 dimerization. Conditions: 1 mM CuSO4, 160 μM hVEGFR1d2, gel filtration. Here is the method:
Because the competition assay results indicated a higher effect of Cu^2+ ions compared to Zn^2+ or Co^2, the Cu^2+-induced dimerization of hVEGFR1d2 in solution was verified using analytical gel-filtration chromatography. In the presence of 1 mM EDTA a single hVEGFR1d2 peak was observed, which represents the monomer (apparent MW = 14.9 kDa). In the presence of 1 mM CuSO4, two peaks were eluted corresponding respectively to the hVEGFR1d2 dimer (78% of absorption, apparent MW = 27.9 kDa) and monomer (apparent MW = 15.8 kDa). SDS-PAGE analysis confirmed that both peaks consist of hVEGFR1d2 (Fig 7).
The Cu^2+-induced dimerization of hVEGFR1d2 was confirmed using a precalibrated analytical gel-filtration column (Superdex™75 HR 10/300 Amersham GE Healthcare, Little Chalfont, UK). Prior to loading, samples were prepared by incubating 160 μM hVEGFR1d2 in a buffer containing 25 mM Tris-HCl, pH 8.1, 250 mM NaCl, and either 1 mM EDTA or 1mM CuSO4 for 30 min at 18°C. Subsequently, 50 μL of this mixture was loaded at 0.5 mL/min on the column that was equilibrated with the identical respective buffers. Elution peaks were integrated, and the corresponding fractions were analyzed on SDS-PAGE.
(Size exclusion chromatography separates by hydrodynamic size, large species first.)

[1] abbreviates: biotinylated VEGF-A165 displaced by 30 μM of metal on whole ECD (d1-d7) of VEGFR1.
The mark [2] stands for this setting: concentration displacing 50% of biotinylated VEGF-A165 binding on VEGFR1 (ECD).

Like-named read-outs stand apart in the source and are kept apart here.

The IC50 is the point on the concentration scale where inhibition reaches its midpoint.

T1 sequence (P17948 27-687 isoform P17948-2): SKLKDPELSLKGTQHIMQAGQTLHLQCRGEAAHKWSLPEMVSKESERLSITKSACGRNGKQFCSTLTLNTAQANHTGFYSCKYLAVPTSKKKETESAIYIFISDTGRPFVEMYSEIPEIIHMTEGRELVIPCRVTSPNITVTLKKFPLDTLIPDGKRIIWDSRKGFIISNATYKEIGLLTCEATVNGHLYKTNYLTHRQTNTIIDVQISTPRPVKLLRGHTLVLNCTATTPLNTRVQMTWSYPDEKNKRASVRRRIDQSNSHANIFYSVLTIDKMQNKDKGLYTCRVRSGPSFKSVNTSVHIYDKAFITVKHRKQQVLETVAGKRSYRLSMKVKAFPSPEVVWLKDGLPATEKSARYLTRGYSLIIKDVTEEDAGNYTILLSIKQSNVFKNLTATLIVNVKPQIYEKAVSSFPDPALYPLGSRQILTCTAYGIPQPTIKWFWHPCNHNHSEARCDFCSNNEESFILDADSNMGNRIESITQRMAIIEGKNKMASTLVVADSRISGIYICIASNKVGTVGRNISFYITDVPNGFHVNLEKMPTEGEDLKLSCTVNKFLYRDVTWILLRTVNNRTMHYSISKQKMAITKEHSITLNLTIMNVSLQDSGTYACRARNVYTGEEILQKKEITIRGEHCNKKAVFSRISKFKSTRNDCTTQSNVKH
T2 sequence (P17948 132-226): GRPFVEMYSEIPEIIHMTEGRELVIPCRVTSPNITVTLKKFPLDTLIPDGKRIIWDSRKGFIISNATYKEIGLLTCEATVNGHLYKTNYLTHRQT

On to `[Cl-].[Cl-].[Co+2]` [CoCl2], for which, at hVEGFR1-ECD, the “% displacement at 30 μM” value was determined as 40 ± 2% and the IC50 amounted to 47100 nM.

`O=S(=O)([O-])[O-].[Cu+2]` [CuSO4]: on hVEGFR1-ECD (setting [1]), the “% displacement at 30 μM” value is 83 ± 8%. For the same compound, the IC50 on hVEGFR1-ECD (setting [2]) turned out to be 970 nM. The “hVEGFR1d2 dimer peak, % of absorption” value at hVEGFR1d2 worked out at 78%. In the case of `[Ni+2]` [Ni^2+], the “IC50 [95% CI]” value at hVEGFR1-ECD (setting [2]) is “within the micromolar range”. As to `[Zn+2]` [Zn^2+], at hVEGFR1-ECD (setting [2]), the “IC50 [95% CI]” value is given as “within the micromolar range”. For the compound `O=S(=O)([O-])[O-].[Na+].[Na+]` [Na2SO4], the “% displacement at 30 μM” value on hVEGFR1-ECD (setting [1]) was found to be 0%.

For `O=S(=O)([O-])[O-].[Ni+2]` [NiSO4], on hVEGFR1-ECD (setting [1]), the “% displacement at 30 μM” value was 75 ± 1%. In addition, at hVEGFR1-ECD (setting [2]), the half-maximal inhibitory concentration (IC50) turned out to be 3540 nM. Turning to `[Fe+2]` [Fe^2+], on hVEGFR1-ECD, the “effect on the competition assay (in words)” value (“effect” below) is “no effect”. As for `[Cl][Cd][Cl]` [CdCl2], at hVEGFR1-ECD (setting [1]), the “% displacement at 30 μM” value worked out at 38 ± 4%. For the same compound, the IC50 on hVEGFR1-ECD (setting [2]) came out at 48000 nM.

In the case of `CC(=O)[O-].CC(=O)[O-].[Cu+2]` [Cu(OAc)2], the “% displacement at 30 μM” value on hVEGFR1-ECD (setting [1]) was 69 ± 2%. Further, at hVEGFR1-ECD (setting [2]), the concentration for half-maximal inhibition (IC50) came out at 1320 nM. `[Mn+2]` [Mn^2+]: at hVEGFR1-ECD, the “effect” value is “no effect”. Still for that read-out and setting: then `[Co+2]` [Co^2+], with “little”. With `[Cl][Cu][Cl]` [CuCl2], on hVEGFR1-ECD (setting [1]), the “% displacement at 30 μM” value is 87 ± 2%. Moreover, the IC50 at hVEGFR1-ECD (setting [2]) is 1260 nM. For `O=S(=O)([O-])[O-].[Zn+2]` [ZnSO4], in that order: 61 ± 2% and 5940 nM.

Take `O=S(=O)([O-])[O-].[Mn+2]` [MnSO4]: the “% displacement at 30 μM” value on hVEGFR1-ECD (setting [1]) is reported as 0%. Take `[Cl][Pd][Cl]` [PdCl2]: the “% displacement at 30 μM” value on hVEGFR1-ECD (setting [1]) is 93 ± 1%. Further, the IC50 on hVEGFR1-ECD (setting [2]) came out at 250 nM. Regarding `[Cu+2]` [Cu^2+], the “disruption of the VEGF-A/hVEGFR1-ECD interaction in the presence of a metal chelator” value at hVEGFR1-ECD (with EDTA, 1 eq.) is “unable to disrupt the VEGF-A/hVEGFR1-ECD interaction”. For `O=S(=O)([O-])[O-].[Co+2]` [CoSO4], the “% displacement at 30 μM” value on hVEGFR1-ECD (setting [1]) came out at 44 ± 1%. On to `[Cd+2]` [Cd^2+], for which the “effect” value on hVEGFR1-ECD was “little”. Regarding `CC(=O)[O-].CC(=O)[O-].[Pd+2]` [Pd(OAc)2], the “% displacement at 30 μM” value on hVEGFR1-ECD (setting [1]) is 97 ± 3%. The 50% inhibitory concentration (IC50) at hVEGFR1-ECD (setting [2]) amounted to 360 nM. In the case of `O=S(=O)([O-])[O-].[Fe+2]` [FeSO4], the “% displacement at 30 μM” value at hVEGFR1-ECD (setting [1]) was found to be 13 ± 5%.
